Test results from the supplement of paper PMC10627819.

Legend:
S. pneumoniae D39V [1] = assay: fitness (endpoint OD595 vs no drug) (fraction); higher = more growth
How it was run: (§1)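 Growth medium was TSB, LB Lennox or CY, and plates were kept at 37 °C. Inoculation was at OD595 0.01 in 384-well plates, at 30 µl per well or 55 µl for S. pneumoniae. OD595 was monitored every 30 min for 14 h and background-subtracted using the first reading. Fitness is the optical density on entering stationary phase divided by the robust mean of no-drug controls, with values capped at 1.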

B. subtilis 168 [2] = assay: as above
How it was run: as §1

S. aureus Newman = assay: Bliss interaction score (quartile over a dose matrix) (fitness difference); higher = more antagonism (negative = synergy)
How it was run: (§2)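 Fitness is OD595 at stationary-phase entry relative to the plate's robust no-drug mean, capped at 1. Single-drug fitness was inferred from combinations. The Bliss score is observed minus product-expected fitness, summarised by quartiles over technical, biological and donor/recipient replicates.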

S. aureus DSM 20231 [3] = assay: as above
How it was run: as §2

S. pneumoniae D39V [4] = assay: as above
How it was run: as §2

B. subtilis 168 [5] = assay: as above
How it was run: as §2

S. aureus DSM 20231 [6] = assay: fitness (endpoint OD595 vs no drug) (fraction); higher = more growth
How it was run: as §1
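For Bliss interaction score (quartile over a dose matrix) in this document: first quartile when negative (synergy) and third quartile when positive (antagonism).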

C[C@H]1COc2c(N3CCN(C)CC3)c(F)cc3c(=O)c(C(=O)O)cn1c23 [Levofloxacin] + CN(C)c1cc(NC(=O)CNC(C)(C)C)c(O)c2c1C[C@H]1C[C@H]3[C@H](N(C)C)C(O)=C(C(N)=O)C(=O)[C@@]3(O)C(O)=C1C2=O [Tigecycline]
fitness
Conditions | first compound 0.0312 µg/mL | first compound 0.0625 µg/mL | first compound 0.125 µg/mL | first compound 0.1725 µg/mL | first compound 0.2 µg/mL | first compound 0.345 µg/mL | first compound 0.4 µg/mL | first compound 0.69 µg/mL | first compound 0.8 µg/mL
B. subtilis 168 [2], partner 0.039 µg/mL | 0.0258 | 0.0305 | 0.0314 | – | – | – | – | – | –
B. subtilis 168 [2], partner 0.078 µg/mL | 0.0327 | 0.0457 | 0.0438 | – | – | – | – | – | –
B. subtilis 168 [2], partner 0.156 µg/mL | 0.0426 | 0.0476 | 0.0441 | – | – | – | – | – | –
S. pneumoniae D39V [1], partner 0.65 µg/mL | – | – | – | 0.96 | 0.853 | 0.88 | 0.712 | 0.456 | 0.301
S. pneumoniae D39V [1], partner 1.3 µg/mL | – | – | – | 0.949 | 0.842 | 0.85 | 0.713 | 0.537 | 0.35
S. pneumoniae D39V [1], partner 2.6 µg/mL | – | – | – | 0.926 | 0.81 | 0.835 | 0.705 | 0.544 | 0.321

fitness, B. subtilis 168 [2], one replicate
Conditions | partner 0.039 µg/mL | partner 0.078 µg/mL | partner 0.125 µg/mL | partner 0.156 µg/mL | partner 0.25 µg/mL | partner 0.5 µg/mL
first compound 0.001 µg/mL | 0.897 | 0.893 | – | 0.926 | – | –
first compound 0.002 µg/mL | 0.932 | 0.911 | ≥ 1 | 0.878 | 0.862 | 0.993
first compound 0.0039 µg/mL | 0.847 | 0.855 | 0.985 | 0.971 | 0.955 | 0.887
first compound 0.0078 µg/mL | – | – | 0.94 | – | 0.94 | 0.885

Conditions | Bliss interaction score
B. subtilis 168 [5] | -0.0381
S. aureus DSM 20231 [3] | -0.101
S. aureus Newman | -0.045
S. pneumoniae D39V [4] | -0.132

C[C@H]1COc2c(N3CCN(C)CC3)c(F)cc3c(=O)c(C(=O)O)cn1c23 [Levofloxacin] + CN[C@@H]1[C@H](O)[C@H](NC)[C@H]2O[C@@]3(O)C(=O)C[C@@H](C)O[C@H]3O[C@@H]2[C@H]1O [Spectinomycin]
fitness
Conditions | first compound 0.0312 µg/mL | first compound 0.0625 µg/mL | first compound 0.125 µg/mL | first compound 0.1725 µg/mL | first compound 0.345 µg/mL | first compound 0.69 µg/mL
B. subtilis 168 [2], partner 2 µg/mL | 0.036 | 0.0431 | 0.0402 | – | – | –
B. subtilis 168 [2], partner 4 µg/mL | 0.0347 | 0.0352 | 0.0401 | – | – | –
B. subtilis 168 [2], partner 8 µg/mL | 0.0234 | 0.0342 | 0.0261 | – | – | –
S. pneumoniae D39V [1], partner 4 µg/mL | – | – | – | 0.875 | 0.808 | 0.41
S. pneumoniae D39V [1], partner 8 µg/mL | – | – | – | 0.928 | 0.816 | 0.439
S. pneumoniae D39V [1], partner 16 µg/mL | – | – | – | 0.835 | 0.737 | 0.396

fitness, one replicate
Conditions | first compound 0.001 µg/mL | first compound 0.002 µg/mL | first compound 0.0039 µg/mL | first compound 0.2 µg/mL | first compound 0.4 µg/mL | first compound 0.8 µg/mL
B. subtilis 168 [2], partner 2 µg/mL | 0.986 | 0.966 | 0.988 | – | – | –
B. subtilis 168 [2], partner 4 µg/mL | 0.955 | 0.888 | ≥ 1 | – | – | –
B. subtilis 168 [2], partner 8 µg/mL | 0.99 | 0.912 | ≥ 1 | – | – | –
S. pneumoniae D39V [1], partner 4 µg/mL | – | – | – | 0.96 | 0.868 | 0.446
S. pneumoniae D39V [1], partner 8 µg/mL | – | – | – | 0.9 | 0.804 | 0.508

Conditions | Bliss interaction score
B. subtilis 168 [5] | -0.0192
S. aureus DSM 20231 [3] | 0.0353
S. aureus Newman | -0.0582
S. pneumoniae D39V [4] | -0.0643

CN(C)C(=O)C(CCN1CCC(O)(c2ccc(Cl)cc2)CC1)(c1ccccc1)c1ccccc1 [Loperamide] + Cc1ncc([N+](=O)[O-])n1CCO [Metronidazole]
Conditions | fitness
B. subtilis 168 [2], first compound 25 µg/mL, partner 0.625 µg/mL | 0.918
B. subtilis 168 [2], first compound 25 µg/mL, partner 1.25 µg/mL | 0.891
B. subtilis 168 [2], first compound 25 µg/mL, partner 2.5 µg/mL | 0.895
B. subtilis 168 [2], first compound 100 µg/mL, partner 1.25 µg/mL | 0.214
B. subtilis 168 [2], first compound 100 µg/mL, partner 2.5 µg/mL | 0.203
S. pneumoniae D39V [1], first compound 17.14 µg/mL, partner 1.25 µg/mL | 0.983
S. pneumoniae D39V [1], first compound 17.14 µg/mL, partner 2.5 µg/mL | ≥ 1
S. pneumoniae D39V [1], first compound 17.14 µg/mL, partner 5 µg/mL | 0.99
S. pneumoniae D39V [1], first compound 20 µg/mL, partner 1.073 µg/mL | ≥ 1
S. pneumoniae D39V [1], first compound 20 µg/mL, partner 2.145 µg/mL | 0.921
S. pneumoniae D39V [1], first compound 20 µg/mL, partner 4.29 µg/mL | 0.973
S. pneumoniae D39V [1], first compound 34.28 µg/mL, partner 1.25 µg/mL | 0.99
S. pneumoniae D39V [1], first compound 34.28 µg/mL, partner 2.5 µg/mL | ≥ 1
S. pneumoniae D39V [1], first compound 34.28 µg/mL, partner 5 µg/mL | 0.979
S. pneumoniae D39V [1], first compound 40 µg/mL, partner 1.073 µg/mL | ≥ 1
S. pneumoniae D39V [1], first compound 40 µg/mL, partner 4.29 µg/mL | 0.96
S. pneumoniae D39V [1], first compound 80 µg/mL, partner 1.073 µg/mL | 0.938
S. pneumoniae D39V [1], first compound 80 µg/mL, partner 2.145 µg/mL | 0.898
S. pneumoniae D39V [1], first compound 80 µg/mL, partner 4.29 µg/mL | 0.95

S. pneumoniae D39V [1], first compound 68.57 µg/mL, one replicate
Conditions | fitness
partner 1.25 µg/mL | ≥ 1
partner 2.5 µg/mL | 0.944
partner 5 µg/mL | ≥ 1

Conditions | Bliss interaction score
B. subtilis 168 [5] | 0.268
S. aureus DSM 20231 [3] | 0.0627
S. aureus Newman | 0.064
S. pneumoniae D39V [4] | 0.0877

CC1(C)S[C@@H]2[C@H](NC(=O)[C@H](N)c3ccc(O)cc3)C(=O)N2[C@H]1C(=O)O [Amoxicillin] + COc1cc(Cc2cnc(N)nc2N)cc(OC)c1OC [Trimethoprim]
fitness, S. aureus DSM 20231 [6]
Conditions | partner 0.125 µg/mL | partner 0.25 µg/mL | partner 0.5 µg/mL | partner 1 µg/mL
first compound 0.0625 µg/mL | 0.511 | 0.401 | 0.0356 | 0.0213
first compound 0.125 µg/mL | 0.189 | 0.11 | 0.0261 | 0.0335
first compound 0.25 µg/mL | 0.0479 | 0.037 | 0.033 | 0.0125

S. aureus DSM 20231 [6], first compound 0.5 µg/mL, one replicate
Conditions | fitness
partner 0.125 µg/mL | 0.0327
partner 0.25 µg/mL | 0.0355
partner 0.5 µg/mL | 0.0427

Conditions | Bliss interaction score
B. subtilis 168 [5] | -0.139
S. aureus DSM 20231 [3] | -0.0714
S. aureus Newman | 0.0661
S. pneumoniae D39V [4] | 0.174

C[C@H]1COc2c(N3CCN(C)CC3)c(F)cc3c(=O)c(C(=O)O)cn1c23 [Levofloxacin] + CCC[C@@H]1C[C@@H](C(=O)N[C@@H]([C@H]2O[C@H](SC)[C@H](O)[C@@H](O)[C@H]2O)[C@@H](C)O)N(C)C1 [Lincomycin]
Conditions | fitness
B. subtilis 168 [2], first compound 0.002 µg/mL, partner 0.4 µg/mL | 0.897
B. subtilis 168 [2], first compound 0.0039 µg/mL, partner 0.4 µg/mL | 0.888
B. subtilis 168 [2], first compound 0.0312 µg/mL, partner 0.1 µg/mL | 0.0367
B. subtilis 168 [2], first compound 0.0312 µg/mL, partner 0.2 µg/mL | 0.0349
B. subtilis 168 [2], first compound 0.0312 µg/mL, partner 0.4 µg/mL | 0.0483
B. subtilis 168 [2], first compound 0.0625 µg/mL, partner 0.1 µg/mL | 0.0423
B. subtilis 168 [2], first compound 0.0625 µg/mL, partner 0.2 µg/mL | 0.0292
B. subtilis 168 [2], first compound 0.0625 µg/mL, partner 0.4 µg/mL | 0.0493
B. subtilis 168 [2], first compound 0.125 µg/mL, partner 0.1 µg/mL | 0.0441
B. subtilis 168 [2], first compound 0.125 µg/mL, partner 0.2 µg/mL | 0.0449
B. subtilis 168 [2], first compound 0.125 µg/mL, partner 0.4 µg/mL | 0.0489
S. pneumoniae D39V [1], first compound 0.1725 µg/mL, partner 0.2 µg/mL | 0.768
S. pneumoniae D39V [1], first compound 0.1725 µg/mL, partner 0.4 µg/mL | 0.7
S. pneumoniae D39V [1], first compound 0.1725 µg/mL, partner 0.8 µg/mL | 0.266
S. pneumoniae D39V [1], first compound 0.2 µg/mL, partner 0.215 µg/mL | 0.807
S. pneumoniae D39V [1], first compound 0.2 µg/mL, partner 0.43 µg/mL | 0.77
S. pneumoniae D39V [1], first compound 0.2 µg/mL, partner 0.86 µg/mL | 0.5
S. pneumoniae D39V [1], first compound 0.345 µg/mL, partner 0.2 µg/mL | 0.726
S. pneumoniae D39V [1], first compound 0.345 µg/mL, partner 0.4 µg/mL | 0.639
S. pneumoniae D39V [1], first compound 0.345 µg/mL, partner 0.8 µg/mL | 0.201
S. pneumoniae D39V [1], first compound 0.4 µg/mL, partner 0.215 µg/mL | 0.754
S. pneumoniae D39V [1], first compound 0.4 µg/mL, partner 0.43 µg/mL | 0.68
S. pneumoniae D39V [1], first compound 0.4 µg/mL, partner 0.86 µg/mL | 0.379
S. pneumoniae D39V [1], first compound 0.69 µg/mL, partner 0.2 µg/mL | 0.542
S. pneumoniae D39V [1], first compound 0.69 µg/mL, partner 0.4 µg/mL | 0.503
S. pneumoniae D39V [1], first compound 0.69 µg/mL, partner 0.8 µg/mL | 0.18
S. pneumoniae D39V [1], first compound 0.8 µg/mL, partner 0.215 µg/mL | 0.691
S. pneumoniae D39V [1], first compound 0.8 µg/mL, partner 0.43 µg/mL | 0.596
S. pneumoniae D39V [1], first compound 0.8 µg/mL, partner 0.86 µg/mL | 0.272

fitness, B. subtilis 168 [2], one replicate
Conditions | partner 0.1 µg/mL | partner 0.2 µg/mL | partner 0.4 µg/mL | partner 0.8 µg/mL | partner 1.6 µg/mL
first compound 0.001 µg/mL | – | – | 0.789 | 0.889 | 0.849
first compound 0.002 µg/mL | ≥ 1 | 0.968 | – | 0.797 | 0.767
first compound 0.0039 µg/mL | ≥ 1 | 0.975 | – | 0.743 | 0.806
first compound 0.0078 µg/mL | 0.997 | 0.961 | 0.945 | – | –

Conditions | Bliss interaction score
B. subtilis 168 [5] | 0.0149
S. aureus DSM 20231 [3] | 0.169
S. aureus Newman | 0.0423
S. pneumoniae D39V [4] | 0.104
